From article PMC7926793, “Synthesis and Biological Evaluation of 1-(Diarylmethyl)-1H-1,2,4-triazoles and 1-(Diarylmethyl)-1H-imidazoles as a Novel Class of Anti-Mitotic Agent for Activity in Breast Cancer” (Pharmaceuticals, 2021) come the findings set out here.

pIC50: −log10 of the molar value.

Series [1] concerns HOP-62. The series is described as follows: NCI 60 cell line screen (Non-Small Cell Lung Cancer). The format is cell-based, human. To be noted: for Growth percentage: HOP-62, single dose 10 µM; for GI50: Homo sapiens, HOP-62, NCI 5 dose assay.
Series [2] has as its system CCRF-CEM. The series is described as follows: NCI 60 cell line screen (Leukemia). It counts as cell-based, human. To be noted: for GI50: Homo sapiens, NCI 5 dose assay; for Growth percentage: single dose 10 µM.
Series [3] concerns the target T1, CYP1A1 (Homo sapiens, UniProt P04798).
T1 sequence (P04798 1-512): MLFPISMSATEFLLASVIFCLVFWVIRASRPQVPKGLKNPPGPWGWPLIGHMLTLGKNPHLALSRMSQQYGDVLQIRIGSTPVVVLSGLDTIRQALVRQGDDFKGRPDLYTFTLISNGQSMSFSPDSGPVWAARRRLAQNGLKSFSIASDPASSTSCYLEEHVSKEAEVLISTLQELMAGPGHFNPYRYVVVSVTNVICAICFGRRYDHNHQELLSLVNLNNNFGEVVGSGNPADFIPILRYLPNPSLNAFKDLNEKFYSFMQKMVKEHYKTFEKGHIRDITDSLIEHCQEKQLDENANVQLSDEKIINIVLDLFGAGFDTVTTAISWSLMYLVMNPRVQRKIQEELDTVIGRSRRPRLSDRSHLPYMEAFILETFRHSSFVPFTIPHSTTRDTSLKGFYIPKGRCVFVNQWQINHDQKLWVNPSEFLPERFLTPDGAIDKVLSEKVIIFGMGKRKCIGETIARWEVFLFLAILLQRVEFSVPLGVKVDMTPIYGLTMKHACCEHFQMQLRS
The series is described as follows: cytochrome P450 assay (DBF fluorescence). To be noted: for pIC50: IC50 CYP1A1; for inhibition at 25 min, 20 µg/mL: human, recombinant CYP1A1, pH 7.4, probe dibenzylfluorescein (DBF), 2.0 μM.

Series [4] concerns HCT-2998. The series is described as follows: NCI 60 cell line screen (Colon Cancer). The format is cell-based, human. As to conditions: for Growth percentage: HCT-2998, single dose 10 µM; for GI50: Homo sapiens, 60 cell, HCT-2998, NCI 5 dose assay.
In series [5] the test system is OVCAR-5. The series is described as follows: NCI 60 cell line screen (Ovarian Cancer). As to conditions: for GI50: Homo sapiens, OVCAR-5, NCI 5 dose assay; for Growth percentage: OVCAR-5, single dose 10 µM. The format is cell-based, human.
Series [6] has as its system SNB-19. The series is described as follows: NCI 60 cell line screen (CNS Cancer). The format is cell-based, human. As to conditions: for GI50: Homo sapiens, SNB-19, NCI 5 dose assay; for Growth percentage: SNB-19, single dose 10 µM.
The subject of series [7] is NCI-H460. The series is described as follows: NCI 60 cell line screen (Non-Small Cell Lung Cancer). It counts as cell-based, human. To be noted: for GI50: Homo sapiens, NCI-H460, NCI 5 dose assay; for Growth percentage: NCI-H460, single dose 10 µM.
The test system of series [8] is tubulin (microtubule network) in MCF-7 cells. The series is described as follows: immunofluorescence confocal microscopy of microtubule network. The format is cell-based, human. As to conditions: 10 μM, 16 h. As for the experimental part: Confocal microscopy was used to study the effects of drug treatment on MCF-7 cytoskeleton. For immunofluorescence, MCF-7 cells were seeded at 1 × 10^5 cells/mL on eight chamber glass slides (BD Biosciences). […] Following treatment, cells were gently washed in PBS, fixed for 20 min with 4% paraformaldehyde in PBS, and permeabilised in 0.5% Triton X-100. Following washes in PBS containing 0.1% Tween (PBST), cells were blocked in 5% bovine serum albumin diluted in PBST. […] Following washes in PBST, the cells were mounted in Ultra Cruz Mounting Media (Santa Cruz Biotechnology, Santa Cruz, CA) containing 4,6-diamino-2-phenolindol dihydrochloride (DAPI). Images were captured by Leica SP8 confocal microscopy with Leica application suite X software. All images in each experiment were collected on the same day using identical parameters. Experiments were performed on three independent occasions.

Series [9] has as its system LOX IMV1. The series is described as follows: NCI 60 cell line screen (Melanoma). The format is cell-based, human. As to conditions: for GI50: Homo sapiens, LOX IMV1, NCI 5 dose assay; for Growth percentage: LOX IMV1, single dose 10 µM.
For series [10], the system named is SK-MEL-2. The series is described as follows: NCI 60 cell line screen (Melanoma). The format is cell-based, human. As to conditions: for GI50: Homo sapiens, SK-MEL-2, NCI 5 dose assay; for Growth percentage: SK-MEL-2, single dose 10 µM.
The test system of series [11] is MCF-10A non-tumorigenic human mammary epithelial cells. The series is described as follows: toxicity evaluation, alamarBlue assay. It counts as cell-based. To be noted: 10 μM, 24 h. For orientation: The colour change of resazurin is a common sign of viable cells or microbes.
Series [12] deals with HCT-15. The series is described as follows: NCI 60 cell line screen (Colon Cancer). The format is cell-based, human. To be noted: for Growth percentage: HCT-15, single dose 10 µM; for GI50: Homo sapiens, HCT-15, NCI 5 dose assay.
Series [13] concerns NCI/ADR-RES. The series is described as follows: NCI 60 cell line screen (Ovarian Cancer). The format is cell-based, human. To be noted: for GI50: Homo sapiens, NCI 5 dose assay; for Growth percentage: single dose 10 µM.
For series [14], the system named is NCI-H226. The series is described as follows: NCI 60 cell line screen (Non-Small Cell Lung Cancer). It counts as cell-based, human. As to conditions: for GI50: Homo sapiens, NCI-H226, NCI 5 dose assay; for Growth percentage: NCI-H226, single dose 10 µM.
The subject of series [15] is SR. The series is described as follows: NCI 60 cell line screen (Leukemia). It counts as cell-based, human. To be noted: for Growth percentage: single dose 10 µM.
Series [16] in a line: HPLC stability study in phosphate buffers. It counts as physicochemical. As to the method:
Stability studies for compounds 21l and 24 were performed by analytical HPLC using a Symmetry® column (C18, […], 4.6 × 150 mm), a Waters 2487 Dual Wavelength Absorbance detector, a Waters 1525 binary HPLC pump, and a Waters 717 plus Autosampler (Waters Corporation, Milford, MA, USA). Samples were detected at λ 254 nm using acetonitrile (70%)/water (30%) as the mobile phase over 15 min and a flow rate of 1 mL/min. Stock solutions of the compounds are prepared using 10 mg of compounds 21l and 24 in 10 mL of mobile phase (1 mg/mL). Phosphate buffers at the desired pH values (4, 7.4, and 9) were prepared following the British Pharmacopoeia monograph 2020. Then, 30 μL of stock solution was diluted with 1 mL of appropriate buffer, shaken, and injected immediately. Samples were withdrawn and analysed at time intervals of t = 0 min, 5 min, 30 min, 60 min, and hourly for 24 h.

For series [17], the system named is MCF-7 cells. The series is described as follows: cell cycle analysis, PI staining, flow cytometry. The format is cell-based, human. As to conditions: 1 μM. As to the method:
The cells were collected by trypsinisation and centrifuged at 800× g for 15 min. Cells were washed twice with ice-cold phosphate-buffered saline (PBS) and fixed in ice-cold 70% ethanol overnight at −20 °C.

As to `COc1ccc(C(c2cc(OC)c(OC)c(OC)c2)n2cncn2)cc1O` (stereo not drawn) [19e, 5-((1H-1,2,4-Triazol-1-yl)(3,4,5-Trimethoxyphenyl)methyl)-2-Methoxyphenol], the Growth percentage was 32.17% in series [1]; 9.32% in series [2]; 25.25% in [4]; 72.98% in [5]; 33.31% in series [6]; 9.82% in series [7]. The Growth percentage in [9] worked out at 43.48%; in series [10] it was 55.94%; in series [12] it was 10.04%; in series [13], 1.80%; in [14], 73.39%. In addition, the GI50 (commonly the concentration at which growth is held to half of that of the control) in series [1] was 0.514 µM; in [2], 0.402 µM; in series [4], 1.35 µM; in [5], 1.99 µM; in series [6], 0.578 µM; in series [7], 0.414 µM. Further, the GI50 came to 0.523 µM in series [9]; 0.361 µM in series [10]; 0.438 µM in [12]; 1.18 µM in series [13]; 1.43 µM in series [14]. In series [3], the pIC50 (commonly the IC50 on a negative log10 scale, so that one unit is a factor of ten) is under 4.27. The inhibition (commonly the change of the read-out against control, counted positive when it falls) at 25 min, 20 µg/mL in [3] came out at 18.1%. Further, the “effect on microtubule network of MCF-7 cells” value in series [8] was “disorganised microtubule networks”. Also, the cell death entry in series [11] was “approximately 50%”.

In the case of `COc1ccc(C(c2cc(OC)c(OC)c(OC)c2)N2CCN(Cc3ccccc3)CC2)cc1` (stereo not drawn) [27d], the Growth percentage in [1] stood at 69.72%; in series [2], 68.76%; in series [4], 91.92%; in series [5] it was 84.69%; in [6], 69.95%; in series [7] it was 74.38%. Moreover, the Growth percentage is recorded as 67.02% in [9]; 27.38% in [10]; 47.63% in [12]; 61.59% in series [13]; 85.40% in series [14]; 16.10% in series [15].

As to `COc1ccc(C(c2cc(OC)c(OC)c(OC)c2)n2ccnc2)cc1O` (stereo not drawn) [21l, 5-((1H-Imidazol-1-yl)(3,4,5-Trimethoxyphenyl)Methyl)-2-Methoxyphenol], the Growth percentage turned out to be 29.46% in [1]; 6.97% in series [2]; 24.97% in series [4]; 71.11% in [5]; 30.51% in series [6]; 6.11% in series [7]. Besides, the Growth percentage in series [9] was found to be 25.65%; in series [10] it was 43.54%; in series [12], 7.70%; in series [13], 12.06%; in series [14], 68.70%; in series [15], 8.48%. The GI50 in series [1] is 0.516 µM; in [2] it was 0.289 µM; in [4], 1.72 µM; in series [5], 0.648 µM; in series [6], 0.532 µM; in series [7], 0.377 µM. The GI50 in [9] was determined as 0.523 µM; in [10], 0.324 µM; in series [12], 0.264 µM; in [13] it was 1.92 µM; in series [14], 0.64 µM; in series [15] (Homo sapiens, NCI 5 dose assay), 0.182 µM. The “compound remaining (HPLC)” value in [16] (pH 4, 24 h) is reported as 90%. For the same compound, the pIC50 in series [3] was under 4.27. Besides, the inhibition at 25 min, 20 µg/mL in [3] amounted to 18.4%. In addition, the figures for the “cells in the G2/M phase” value in series [17] (24 h), in series [17] (48 h) and in series [17] (72 h) were 47%, 43% and 40%, respectively. The “cells undergoing apoptosis (sub-G1)” value is listed as 15% in series [17] (24 h), 31% in series [17] (48 h) and 37% in [17] (72 h). For the same compound, the “effect on microtubule network of MCF-7 cells” value in series [8] is listed as “disorganised microtubule networks”. Besides, the cell death result in [11] was “approximately 50%”.

As for `COc1ccc(C(c2cc(OC)c(OC)c(OC)c2)N2CCCC2)cc1` (stereo not drawn) [25g], the Growth percentage came out at 79.46% in [1]; 71.21% in series [2]; 89.14% in series [4]; 92.64% in series [5]; 90.50% in [6]; 84.31% in series [7]. Moreover, the Growth percentage was found to be 72.96% in series [9]; 55.67% in [10]; 52.67% in series [12]; 69.39% in series [13]; 87.61% in series [14]; 23.87% in series [15].

`COc1ccc(C(c2cc(OC)c(OC)c(OC)c2)N2CCCCC2)cc1` (stereo not drawn) [26b, 1-((4-Methoxyphenyl)(3,4,5-Trimethoxyphenyl)Methyl)Piperidine]: the Growth percentage in [1] worked out at 29.82%; in series [2], 29.91%; in series [4], 79.59%; in series [5], 69.57%; in series [6] it was 30.43%; in series [7], 19.38%. Moreover, the Growth percentage is 36.34% in series [9]; 22.02% in series [10]; 20.63% in [12]; 23.95% in [13]; 55.46% in series [14]; 18.46% in series [15].

`COc1ccc(C(c2cc(OC)c(OC)c(OC)c2)n2nccn2)cc1O` (stereo not drawn) [compound 24]: the “compound remaining (HPLC)” value is 65% in series [16] (pH 4, 24 h); 50% in [16] (pH 7.4, 24 h); 60% in series [16] (pH 9, 24 h). This compound also had a negative logarithm of the IC50 (pIC50) in [3] of under 4.27. The inhibition at 25 min, 20 µg/mL in series [3] was 12.8%. For the same compound, the “cells in the G2/M phase” value came to 52% in series [17] (24 h), 56% in series [17] (48 h) and 59% in series [17] (72 h).
